Laboratory results from patent publication US20190240225A1, “COMBINATION OF A BCL-2 INHIBITOR AND A MCL-1 INHIBITOR, USES AND PHARMACEUTICAL COMPOSITIONS THEREOF” (LES LABORATOIRES SERVIER, priority 2016, published 2019).
pIC50: −log10 of the molar value.

Experiments:
Type in all cases: cell-based
NALM-21 = experiment: CellTiterGlo viability, B-ALL cell line; details: single agent, 72 h
Procedure: (§1) In addition, all media contained penicillin (100 IU/ml), streptomycin (100 μg/ml) and L-glutamine (2 mM). Cell lines were cultured at 37° C. in a humidified atmosphere containing 5% CO2 and expanded in T-150 flasks. In all cases cells were thawed from frozen stocks, expanded through ≥1 passage using appropriate dilutions, counted and assessed for viability using a CASY cell counter prior to plating 150 ul/well at the densities indicated in Table 9 into 96-well plates. All cell lines were determined to be free of mycoplasma contamination in-house.
(§2) Stock solutions of compounds were prepared at a concentration of 5 mM in DMSO and stored at −20° C. In order to analyse the activity of the compounds as single agents, cells were seeded and treated with nine 2-fold serial dilutions of each compound dispensed individually directly into the cell assay plates. Effects of the compounds on cell viability were assessed after 3 days of incubation at 37° C./5% CO2 by quantification of cellular ATP levels using CellTiterGlo at 75 μL reagent/well. All the conditions were tested in triplicates. Luminescence was quantified on a multipurpose plate reader. Single agent IC50s were calculated using standard four-parametric curve fitting. IC50 is defined as the compound concentration at which the CTG signal is reduced to 50% of that measured for the vehicle (DMSO) control.
(§3) In order to analyse the activity of the compounds in combination, cells were seeded and treated with seven or eight 3.16-fold serial dilutions of each compound dispensed, either individually or in all possible permutations in a checkerboard fashion, directly into the cell assay plates as indicated in FIG. 1. Effects of the single agents as well as their checkerboard combinations on cell viability were assessed after 3 days of incubation at 37° C./5% CO2 by quantification of cellular ATP levels using CellTiterGlo at 75 μL reagent/well. For B-ALL cell lines, two independent experiments, each one performed in duplicates, were performed. For T-ALL cell lines, one experiment performed in triplicate was performed. Luminescence was quantified on a multipurpose plate reader.
(§4) Potential synergistic interactions between compound combinations were assessed using the Excess Inhibition 2D matrix according to the Loewe additivity model and are reported as Synergy Score (Lehar et al, Nat Biotechnol. 2009 July; 27(7): 659-666). All calculations were performed using Chalice TM Bioinformatics Software available in Horizon website. The doubling time indicated in Table 9 is the mean of the doubling time obtained in the different passages (in T-150 flasks) performed from the thawing of the cells to their seeding in the 96-well plates.

TOM-1 = experiment: CellTiterGlo viability, B-ALL cell line; details: single agent, 72 h
Procedure: as §1, §2, §3, §4

BALL-1 = experiment: CellTiterGlo viability, B-ALL cell line; details: Homo sapiens, single agent, 72 h
Procedure: as §1, §2, §3, §4

SUP-B15 = experiment: CellTiterGlo viability, B-ALL cell line; details: Homo sapiens, single agent, 72 h
Procedure: as §1, §2, §3, §4

RS4;11 = experiment: CellTiterGlo viability, B-ALL cell line; details: Homo sapiens, single agent, 72 h
Procedure: as §1, §2, §3, §4

TANOUE = experiment: CellTiterGlo viability, B-ALL cell line; details: single agent, 72 h
Procedure: as §1, §2, §3, §4

Kasumi-2 = experiment: CellTiterGlo viability, B-ALL cell line; details: single agent, 72 h
Procedure: as §1, §2, §3, §4

MV4;11 = experiment: CellTiterGlo viability, AML cell line; details: Homo sapiens, 72 h, single agent, 3 days
Procedure: (§5) In addition, all media contained penicillin (100 IU/ml), streptomycin (100 μg/ml) and L-glutamine (2 mM).
as §1, with “Cell” for “In addition, all media contained penicillin (100 IU/ml), streptomycin (100 μg/ml) and L-glutamine (2 mM). Cell”, “Table 1” for “Table 9”
(§6) Stock solutions of compounds were prepared at a concentration of 5 mM in DMSO and stored at −20° C.
as §2, with “In” for “Stock solutions of compounds were prepared at a concentration of 5 mM in DMSO and stored at −20° C. In”, “experiments” for “conditions”, “performed” for “tested”
as §3, with “9.” for “1.”, “Two” for “For B-ALL cell lines, two”, “performed.” for “performed. For T-ALL cell lines, one experiment performed in triplicate was performed.”
(§7) Potential synergistic interactions between compound combinations were assessed using the Excess Inhibition 2D matrix according to the Loewe additivity model and are reported as Synergy Score (Lehar et al, Nat Biotechnol. 2009 July; 27(7): 659-666). All calculations were performed using Clalice™ Bioinformatics Software.

EOL-1 = experiment: CellTiterGlo viability, AML cell line; details: Homo sapiens, EOL1, 72 h, single agent, 3 days
Procedure: as §5
as §1, with “Cell” for “In addition, all media contained penicillin (100 IU/ml), streptomycin (100 μg/ml) and L-glutamine (2 mM). Cell”, “Table 1” for “Table 9”
as §6
as §2, with “In” for “Stock solutions of compounds were prepared at a concentration of 5 mM in DMSO and stored at −20° C. In”, “experiments” for “conditions”, “performed” for “tested”
as §3, with “9.” for “1.”, “Two” for “For B-ALL cell lines, two”, “performed.” for “performed. For T-ALL cell lines, one experiment performed in triplicate was performed.”
as §7

HL-60 = experiment: CellTiterGlo viability, AML cell line; details: Homo sapiens, 72 h, single agent, 3 days
Procedure: as §5
as §1, with “Cell” for “In addition, all media contained penicillin (100 IU/ml), streptomycin (100 μg/ml) and L-glutamine (2 mM). Cell”, “Table 1” for “Table 9”
as §6
as §2, with “In” for “Stock solutions of compounds were prepared at a concentration of 5 mM in DMSO and stored at −20° C. In”, “experiments” for “conditions”, “performed” for “tested”
as §3, with “9.” for “1.”, “Two” for “For B-ALL cell lines, two”, “performed.” for “performed. For T-ALL cell lines, one experiment performed in triplicate was performed.”
as §7

KG1a = experiment: CellTiterGlo viability, AML cell line; details: Homo sapiens, KG-1a, 72 h, single agent, 3 days
Procedure: as §5
as §1, with “Cell” for “In addition, all media contained penicillin (100 IU/ml), streptomycin (100 μg/ml) and L-glutamine (2 mM). Cell”, “Table 1” for “Table 9”
as §6
as §2, with “In” for “Stock solutions of compounds were prepared at a concentration of 5 mM in DMSO and stored at −20° C. In”, “experiments” for “conditions”, “performed” for “tested”
as §3, with “9.” for “1.”, “Two” for “For B-ALL cell lines, two”, “performed.” for “performed. For T-ALL cell lines, one experiment performed in triplicate was performed.”
as §7

Kasumi-1 = experiment: CellTiterGlo viability, AML cell line; details: Homo sapiens, 72 h, single agent, 3 days
Procedure: as §5
as §1, with “Cell” for “In addition, all media contained penicillin (100 IU/ml), streptomycin (100 μg/ml) and L-glutamine (2 mM). Cell”, “Table 1” for “Table 9”
as §6
as §2, with “In” for “Stock solutions of compounds were prepared at a concentration of 5 mM in DMSO and stored at −20° C. In”, “experiments” for “conditions”, “performed” for “tested”
as §3, with “9.” for “1.”, “Two” for “For B-ALL cell lines, two”, “performed.” for “performed. For T-ALL cell lines, one experiment performed in triplicate was performed.”
as §7

Nomo-1 = experiment: CellTiterGlo viability, AML cell line; details: Homo sapiens, 72 h, single agent, 3 days
Procedure: as §5
as §1, with “Cell” for “In addition, all media contained penicillin (100 IU/ml), streptomycin (100 μg/ml) and L-glutamine (2 mM). Cell”, “Table 1” for “Table 9”
as §6
as §2, with “In” for “Stock solutions of compounds were prepared at a concentration of 5 mM in DMSO and stored at −20° C. In”, “experiments” for “conditions”, “performed” for “tested”
as §3, with “9.” for “1.”, “Two” for “For B-ALL cell lines, two”, “performed.” for “performed. For T-ALL cell lines, one experiment performed in triplicate was performed.”
as §7

PL-21 = experiment: CellTiterGlo viability, AML cell line; details: 72 h, single agent, 3 days
Procedure: as §5
as §1, with “Cell” for “In addition, all media contained penicillin (100 IU/ml), streptomycin (100 μg/ml) and L-glutamine (2 mM). Cell”, “Table 1” for “Table 9”
as §6
as §2, with “In” for “Stock solutions of compounds were prepared at a concentration of 5 mM in DMSO and stored at −20° C. In”, “experiments” for “conditions”, “performed” for “tested”
as §3, with “9.” for “1.”, “Two” for “For B-ALL cell lines, two”, “performed.” for “performed. For T-ALL cell lines, one experiment performed in triplicate was performed.”
as §7

ML-2 = experiment: CellTiterGlo viability, AML cell line; details: Homo sapiens, 72 h, single agent, 3 days
Procedure: as §5
as §1, with “Cell” for “In addition, all media contained penicillin (100 IU/ml), streptomycin (100 μg/ml) and L-glutamine (2 mM). Cell”, “Table 1” for “Table 9”
as §6
as §2, with “In” for “Stock solutions of compounds were prepared at a concentration of 5 mM in DMSO and stored at −20° C. In”, “experiments” for “conditions”, “performed” for “tested”
as §3, with “9.” for “1.”, “Two” for “For B-ALL cell lines, two”, “performed.” for “performed. For T-ALL cell lines, one experiment performed in triplicate was performed.”
as §7

KG1 = experiment: CellTiterGlo viability, AML cell line; details: Homo sapiens, KG-1, 72 h, single agent, 3 days
Procedure: as §5
as §1, with “Cell” for “In addition, all media contained penicillin (100 IU/ml), streptomycin (100 μg/ml) and L-glutamine (2 mM). Cell”, “Table 1” for “Table 9”
as §6
as §2, with “In” for “Stock solutions of compounds were prepared at a concentration of 5 mM in DMSO and stored at −20° C. In”, “experiments” for “conditions”, “performed” for “tested”
as §3, with “9.” for “1.”, “Two” for “For B-ALL cell lines, two”, “performed.” for “performed. For T-ALL cell lines, one experiment performed in triplicate was performed.”
as §7

MOLM-13 = experiment: CellTiterGlo viability, AML cell line; details: Homo sapiens, 72 h, single agent, 3 days
Procedure: as §5
as §1, with “Cell” for “In addition, all media contained penicillin (100 IU/ml), streptomycin (100 μg/ml) and L-glutamine (2 mM). Cell”, “Table 1” for “Table 9”
as §6
as §2, with “In” for “Stock solutions of compounds were prepared at a concentration of 5 mM in DMSO and stored at −20° C. In”, “experiments” for “conditions”, “performed” for “tested”
as §3, with “9.” for “1.”, “Two” for “For B-ALL cell lines, two”, “performed.” for “performed. For T-ALL cell lines, one experiment performed in triplicate was performed.”
as §7

GDM-1 = experiment: CellTiterGlo viability, AML cell line; details: Homo sapiens, 72 h, single agent, 3 days
Procedure: as §5
as §1, with “Cell” for “In addition, all media contained penicillin (100 IU/ml), streptomycin (100 μg/ml) and L-glutamine (2 mM). Cell”, “Table 1” for “Table 9”
as §6
as §2, with “In” for “Stock solutions of compounds were prepared at a concentration of 5 mM in DMSO and stored at −20° C. In”, “experiments” for “conditions”, “performed” for “tested”
as §3, with “9.” for “1.”, “Two” for “For B-ALL cell lines, two”, “performed.” for “performed. For T-ALL cell lines, one experiment performed in triplicate was performed.”
as §7

Molecule `Cl.O=C(c1cc(-c2cc3c(cc2C(=O)N2Cc4ccccc4C[C@H]2CN2CCOCC2)OCO3)n2c1CCCC2)N(c1ccccc1)c1ccc(O)cc1` [Compound 1, HCl, N-(4-hydroxyphenyl)-3-{6-[((3S)-3-(4-morpholinylmethyl)-3,4-dihydro-2(1H)-isoquinolinyl)carbonyl]-1,3-benzodioxol-5-yl}-N-phenyl-5,6,7,8-tetrahydro-1-indolizine carboxamide hydrochloride] has a pIC50 (NALM-21) of 7.02, a pIC50 (TOM-1) of 7.72 and a pIC50 (BALL-1) of 7.72. It also gave a pIC50 (SUP-B15) of 7.60, a pIC50 (RS4;11) of 7.70 and a pIC50 (TANOUE) of 4.77. It also gave a pIC50 (Kasumi-2) of 6.68, a pIC50 (MV4;11) of 7.52 and a pIC50 (EOL-1) of 7.40. For the same molecule, the pIC50 (HL-60) was 5.85, the pIC50 (KG1a) was 5.76 and the pIC50 (Kasumi-1) was 6.11. For the same molecule, the pIC50 (Nomo-1) was 5.13, the pIC50 (PL-21) was 5.56 and the pIC50 (ML-2) was 7.40. It also gave a pIC50 (KG1) of 5.33, a pIC50 (MOLM-13) of 7.40 and a pIC50 (GDM-1) of 7.22.
